Results taken from US20060204530A1, “Benzoyl peroxide compositions and methods of use” (JR CHEM, LLC, priority 2005, published 2006).

Assay: Solubility of benzoyl peroxide in the disclosed solvents
Format: physicochemical
Conditions: room temperature
Procedure: In embodiments, benzoyl peroxide can be added to the solvents to form a mixture at room temperature, e.g., at a temperature of 25 to about 27° C. Additionally, the benzoyl peroxide/solvent mixture also can be added to other ingredients to form desired products, e.g., emulsions, lotions, creams or gels at low temperatures. […] However the key difference between the disclosed prior art and the present compositions is that the benzoyl peroxide will actively go into solution at levels as high as 10% by weight of the total formulation. These solutions can offer new clear products of increased efficacy.

O=C(OOC(=O)c1ccccc1)c1ccccc1 [benzoyl peroxide]
level at which benzoyl peroxide goes into solution: ≤ 10 % by weight of the total formulation
